Measured values published in patent US8642357B2, “Semaphorin 7A plays a critical role in TGF-β1-induced pulmonary fibrosis and alveolar destruction” (Yale University, priority 2009, dated 2014).

Tested on: C57BL/6 female mice
Experiment: Bleomycin-induced pulmonary fibrosis and collagen accumulation
Type: in vivo
Conditions: 0.075 Unit/mouse intratracheal; most impressive 3 weeks after administration
Protocol: Animals were anesthetized, a median sternotomy was performed, and right heart perfusion was accomplished with calcium and magnesium-free phosphate-buffered saline (PBS). The heart and lungs were then removed en bloc. The right lung was frozen in liquid nitrogen and stored at −80° C. until used. Collagen content was determined by quantifying total soluble collagen using the Sircol Collagen Assay kit (Biocolor) according to the manufacturer's instructions. The data is expressed as the collagen content of the entire right lung.
The lungs were removed en bloc as described above, inflated at 25 cm pressure with PBS containing 0.5% low melting point agarose gel, fixed, embedded in paraffin, sectioned and stained. Hematoxylin and eosin, and Mallory's trichrome stains were performed in the Research Histology Laboratory of the Department of Pathology at the Yale University School of Medicine.
Bleomycin (0.075 Unit/mouse) or vehicle control were administered to C57BL/6 female mice as previously described by Jiang et al. (2004, J Clin Invest. 114:291-299).
Studies were also undertaken to determine if the biology of SEMA 7A that was defined using the Tg modeling system was also relevant to fibrotic responses that were induced by other stimuli. […]

Q: Which “Pulmonary fibrosis and collagen accumulation” value does the source give for Bleomycin here?
A: significant increase
